Results taken from patent EP0103895A2, “Novel hydroxylamine derivatives, production and use thereof” (MEIJI SEIKA KABUSHIKI KAISHA, priority 1982, dated 1984).
Several values for one entry are separate records, joined by “and”; a condition that tells them apart may be missing. Equal entries are not always repeated. Where two headings read alike, the source gives them in different places.

What was measured:
[1] = test system: fowl roundworm (As. galli); experiment: Anthelmintic test in chickens artificially infected with fowl roundworm, compound added to feed, E.P.G. and worm count up to 21st day (Test Examples A2, B2, C2, D2); assay type: in vivo, Ascaridia galli; settings: Ascaridia galli, po, 504 h, chickens, worm count on 21st day, one value per chicken, read-out: Anthelmintic effect
[2] = test system: canine filaria; Dirofilaria immitis; experiment: Test of anthelmintic effect against canine filaria in naturally infected dogs, subcutaneous injection, microfilaria in blood and adult filaria at autopsy (Test Examples A10, B10, C10, D10); assay type: in vivo; settings: for inhibition in vivo at 30 mg/kg: Dirofilaria immitis, sc, 240 h
[3] = test system: swine Oesophagostomum (Oesophagostomum dentatum); experiment: Test of anthelmintic effect against swine Oesophagostomum in naturally infected pigs, E.P.G. on 7th day (Test Examples A8, B8, C8, D8); assay type: in vivo; settings: pigs
Method: Six pigs infected with swine Oesophagostomum (naturally infected pigs) were employed by grouping them into groups each of two pigs.
As a control, only gelatin capsules were administered orally to the two pigs.
(§1) Before administration and on the 7th day after administration, fecal matter testing was conducted to calculate the E.P.G., and the anthelmintic effect was judged by the changing of the E.P.G. to negative.

[4] = test system: fowl roundworm (Ascaridia galli); experiment: Anthelmintic test in chickens artificially infected with fowl roundworm, single oral dose in gelatin capsule, worm bodies counted within 48 hours (Test Examples A1, B1, C1, D1); assay type: in vivo; settings: Ascaridia galli, po, 48 h, chickens, one value per chicken (No.1-3), read-out: Anthelmintic effect after 48 hours
Method in brief: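 Anthelmintic percentage derived from counts of worms passed within 48 h plus worms left in the intestine after killing at 48 h. Infection confirmed by fecal examination in three-bird groups; compound given orally once in gelatin capsules at 10/20 (A1, B1), 30/50 (C1) or 15/30 (D1) mg/kg.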

[5] = test system: canine whipworm (Trichuris vulpis); experiment: Anthelmintic test in naturally infected dogs with mixed infections, E.P.G. on 7th day: canine whipworm (Test Examples A3, B3, C3, D3); assay type: in vivo
Method: (§2) Three dogs with mixed infections by canine whipworm (Trichuris vulpis), canine hookworm (Ancylostoma caninum) and canine roundworm (Toxocara canis) (naturally infected dogs) were employed in a group of two and a group of one.
(§3) The compound provided for the test was Compound No.Al, and 20 mg/Kg thereof was placed in a gelatin capsule per 1 Kg of body weight, and administered orally to the two dogs. As control, only a gelatin capsule was administered orally to the one dog.
as §1
(§4) As control, only gelatin capsules were administered orally to the one dog.
(§5) The same method as in Test Example A3, but the compound provided for the test was Compound No. Cl. 30 mg/Kg of this compound was placed in a gelatin capsule per 1 Kg of body weight and administered orally to the two dogs. As control, only gelatin capsules were administered orally to the one dog.

[6] = test system: stomach worm (Haemonchus controtus); experiment: Anthelmintic test against cow stomach worm in naturally infected cows, E.P.G. on 7th day (Test Examples A6, B6, C6, D6); assay type: in vivo; settings: cows
Method: Three cows infected with stomach worm (naturally infected cows) were employed by grouping them into a group of two and a group of one.
(§6) As control, only gelatin capsules were administered orally to the one cow.
as §1, §6, §6

[7] = test system: canine roundworm (Toxocara canis); experiment: Anthelmintic test in naturally infected dogs with mixed infections, E.P.G. on 7th day: canine roundworm (Test Examples A3, B3, C3, D3); assay type: in vivo; settings: dogs, 30 mg/Kg orally once, one value per dog
Method: as §2, §3, §1, §4, §5

[8] = test system: canine hookworm (Ancylostoma caninum); experiment: Anthelmintic test in naturally infected dogs with mixed infections, E.P.G. on 7th day: canine hookworm (Test Examples A3, B3, C3, D3); assay type: in vivo; settings: dogs, 30 mg/Kg orally once, one value per dog
Method: as §2, §3, §1, §4, §5

C=CCN(OC)C(C)=O [Compound B1, N-allyl-N-acetyl-O-methylhydroxylamine]
inhibition in vivo at 20 ppm ([1]; 20 ppm added to feed): 80 to 90%
inhibition in vivo at 50 ppm ([1]; 50 ppm added to feed): 100%
inhibition in vivo at 30 mg/kg ([2]; dog, 30 mg/Kg x 3, subcutaneous injection, read-out: Effect on adult filaria: Percent of worms killed): 58%
inhibition in vivo at 30 mg/kg ([2]; dogs, administration of 30 mg/Kg repeated three times, given as about 50% or more, read-out: anthelmintic effect against adult filaria): ≥ 50%
Number of microfilaria/20 µl on 10th day after the last administration ([2]; dog, 30 mg/Kg x 3, subcutaneous injection, suspension in 1% Tween 80): 0 /20 µl
Effect on adult filaria: Number of worms killed/ Total parasite ([2]; dog, 30 mg/Kg x 3, subcutaneous injection, 30 mg/kg): 8/15 and 12/21
anthelmintic effect against microfilaria (mf) ([2]; dogs, administration of 30 mg/Kg repeated three times): marked anthelmintic effect
Change of E.P.G. Before administration ([3]; 20 mg/Kg orally once, baseline, one value per pig, 20 mg/kg): 1,200 E.P.G. and 2,600 E.P.G.
Change of E.P.G. 7th day ([3]; 20 mg/Kg orally once, one value per pig): 0 E.P.G.
anthelmintic effect ([3]; one administration of 20 mg/Kg): marked anthelmintic effect
inhibition in vivo at 30 mg/kg ([4]; 30 mg/Kg orally in gelatin capsule): 100%
inhibition in vivo at 50 mg/kg ([4]; 50 mg/Kg orally in gelatin capsule): 100%
anthelmintic effect ([5]; dogs with mixed infections (Trichuris vulpis, Ancylostoma caninum, Toxocara canis; statement covers all three), one administration of 30 mg/Kg): marked anthelmintic effect
Change of E.P.G. Before administration ([5]; dogs, 30 mg/Kg orally once, Trichuris vulpis, baseline, one value per dog, 30 mg/kg): 5,100 E.P.G. and 2,700 E.P.G.
Change of E.P.G. 7th day ([5]; dogs, 30 mg/Kg orally once, Trichuris vulpis, one value per dog): 0 E.P.G.
Change of E.P.G. Before administration ([6]; 20 mg/Kg orally once, baseline, one value per cow, 20 mg/kg): 2,500 E.P.G. and 3,300 E.P.G.
Change of E.P.G. 7th day ([6]; 20 mg/Kg orally once, one value per cow): 0 E.P.G.
anthelmintic effect ([6]; one administration of 20 mg/Kg): marked anthelmintic effect
Change of E.P.G. Before administration ([7]; baseline, 30 mg/kg): 6,100 E.P.G. and 3,200 E.P.G.
Change of E.P.G. 7th day [7]: 0 E.P.G.
Change of E.P.G. Before administration ([8]; baseline, 30 mg/kg): 4,500 E.P.G. and 8,700 E.P.G.
Change of E.P.G. 7th day [8]: 0 E.P.G.
